Assay results published in patent publication US4388311A, “Method for the induction of menses” (G. D. Searle & Co., priority 1982, dated 1983).
“And” between values parts separate entries of the source, which are not always exact repeats. Equal entries are not always repeated.

What was measured:
[1] = system: pregnancy in rats; assay: Termination of pregnancy in rats, compounds administered subcutaneously (Table 2); type: in vivo, rat
Description: (§1) The following tables list the results for a compound of Formula IV as compared with a control of previously known 2α-cyano-17β-hydroxy-3-oxo-4,4,17α-trimethylandrost-5-end(Cyanoketone) for termination of pregnancy.
^1 Compounds given subcutaneously in corn oil vehicle once daily on
days 10 through 13 of pregnancy. Serum for progesterone determination was
drawn on day 11 of pregnancy, 24 hours after the initial injection of
compound. The animals were autopsied on day 14 of pregnancy.
^2 Serum progesterone values determined by RIA at Interlab Associates

[2] = system: pregnancy in rats; assay: Pregnancy termination in rats, compounds administered intragastrically for four days (Table 1); type: in vivo, rat; conditions: for Serum Progesterone ng/ml + S.E. / Serum Progesterone (Percent Control): serum day 11, 24 hours after initial injection
Description: as §1
^1 Compounds were administered intragastrically once daily on days 10
through 13 of pregnancy in a vehicle consisting of PEG400, propylene
glycol and 100 percent ethanol (50:40:10, v:v:v). Serum for progesterone
determination was drawn on day 11 of pregnancy, 24 hours after the initia
injection of compound. The animals were autopsied on day 14 of pregnancy.

[3] = 16 mg/kg/day subcutaneously in corn oil once daily days 10-13 of pregnancy, autopsy day 14, 16 mg/kg/day
[4] = 32 mg/kg/day subcutaneously days 10-13 of pregnancy, serum day 11, 24 hours after initial injection
[5] = 32 mg/kg/day subcutaneously in corn oil once daily days 10-13 of pregnancy, autopsy day 14
[6] = 1 mg/kg/day intragastrically once daily days 10-13 of pregnancy, autopsy day 14
[7] = 2 mg/kg/day intragastrically days 10-13 of pregnancy
[8] = 2 mg/kg/day intragastrically once daily days 10-13 of pregnancy, autopsy day 14
[9] = 4 mg/kg/day intragastrically days 10-13 of pregnancy, 4 mg/kg/day
[10] = 4 mg/kg/day intragastrically once daily days 10-13 of pregnancy, autopsy day 14, 4 mg/kg/day
[11] = 8 mg/kg/day intragastrically days 10-13 of pregnancy
[12] = 8 mg/kg/day intragastrically once daily days 10-13 of pregnancy, autopsy day 14
[13] = 16 mg/kg/day intragastrically days 10-13 of pregnancy
[14] = 16 mg/kg/day intragastrically once daily days 10-13 of pregnancy, autopsy day 14
[15] = 32 mg/kg/day intragastrically days 10-13 of pregnancy
[16] = 32 mg/kg/day intragastrically once daily days 10-13 of pregnancy, autopsy day 14
[17] = 64 mg/kg/day intragastrically days 10-13 of pregnancy
[18] = 64 mg/kg/day intragastrically once daily days 10-13 of pregnancy, autopsy day 14
[19] = 128 mg/kg/day intragastrically days 10-13 of pregnancy
[20] = 128 mg/kg/day intragastrically once daily days 10-13 of pregnancy, autopsy day 14

For `CC1(C)C(=O)[C@H](C#N)C[C@@]2(C)C1=CC[C@@H]1[C@@H]2CC[C@@]2(C)[C@H]1CC[C@]2(C)O` [Cyanoketone, 2α-cyano-17β-hydroxy-3-oxo-4,4,17α-trimethylandrost-5-end], the “Fetal Viability: Normal Fetuses/Implantation Sites” value [1, 3] was 26/103 and 11/94, the “Number of Rats Pregnant/Number of Rats Treated” value [1, 3] was 3/9 and 2/8 and the “Number of Rats Pregnant/Number of Rats Treated (Percent)” value [1, 3] was 33% and 25%. For the same molecule, the “Serum Progesterone (Percent Control)” value [1, 4] was 70 Percent Control, the “Serum Progesterone ng/ml + S.E.” value [1, 4] was 35.1 + 7.8 ng/ml and the “Adrenal Wt. mg + SE” value [1, 5] was 94.8 + 8.9 mg. The “Fetal Viability: Normal Fetuses/Implantation Sites” value [1, 5] was 15/63, the “Fetal Viability: Normal Fetuses/Implantation Sites (Percent)” value [1, 5] was 24% and the “Number of Rats Pregnant/Number of Rats Treated” value [1, 5] was 2/6. For the same molecule, the “Number of Rats Pregnant/Number of Rats Treated (Percent)” value [1, 5] was 33%, the “Serum Progesterone ng/ml + S.E.” value ([2]; 1 mg/kg/day intragastrically days 10-13 of pregnancy) was 47.3 + 3.5 ng/ml and the “Adrenal Wt. mg + SE” value [2, 6] was 74.9 + 4.1 mg. The “Fetal Viability: Normal Fetuses/Implantation Sites” value [2, 6] was 49/54, the “Fetal Viability: Normal Fetuses/Implantation Sites (Percent)” value [2, 6] was 91% and the “Number of Rats Pregnant/Number of Rats Treated” value [2, 6] was 5/5. The “Number of Rats Pregnant/Number of Rats Treated (Percent)” value [2, 6] was 100%, the “Serum Progesterone (Percent Control)” value [2, 7] was 111 Percent Control and the “Serum Progesterone ng/ml + S.E.” value [2, 7] was 52.5 + 3.7 ng/ml. For the same molecule, the “Adrenal Wt. mg + SE” value [2, 8] was 77.1 + 5.3 mg, the “Fetal Viability: Normal Fetuses/Implantation Sites” value [2, 8] was 61/84 and the “Fetal Viability: Normal Fetuses/Implantation Sites (Percent)” value [2, 8] was 73%. The “Number of Rats Pregnant/Number of Rats Treated” value [2, 8] was 6/7, the “Number of Rats Pregnant/Number of Rats Treated (Percent)” value [2, 8] was 86% and the “Serum Progesterone (Percent Control)” value [2, 9] was 75 Percent Control and 72 Percent Control. For the same molecule, the “Serum Progesterone ng/ml + S.E.” value [2, 9] was 35.5 + 6.2 ng/ml and 33.8 + 3.8 ng/ml, the “Adrenal Wt. mg + SE” value [2, 10] was 75.0 + 3.5 mg and 76.9 + 3.7 mg and the “Fetal Viability: Normal Fetuses/Implantation Sites” value [2, 10] was 0/92 and 44/97. For the same molecule, the “Number of Rats Pregnant/Number of Rats Treated” value [2, 10] was 1/8 and 5/8, the “Serum Progesterone (Percent Control)” value [2, 11] was 64 Percent Control and the “Serum Progesterone ng/ml + S.E.” value [2, 11] was 30.2 + 3.8 ng/ml. The “Adrenal Wt. mg + SE” value [2, 12] was 65.7 + 2.5 mg, the “Fetal Viability: Normal Fetuses/Implantation Sites” value [2, 12] was 13/110 and the “Fetal Viability: Normal Fetuses/Implantation Sites (Percent)” value [2, 12] was 12%. For the same molecule, the “Number of Rats Pregnant/Number of Rats Treated” value [2, 12] was 3/10, the “Number of Rats Pregnant/Number of Rats Treated (Percent)” value [2, 12] was 30% and the “Serum Progesterone (Percent Control)” value [2, 13] was 88 Percent Control. The “Serum Progesterone ng/ml + S.E.” value [2, 13] was 41.4 + 7.1 ng/ml, the “Adrenal Wt. mg + SE” value [2, 14] was 74.5 + 3.1 mg and the “Fetal Viability: Normal Fetuses/Implantation Sites” value [2, 14] was 25/103. The “Fetal Viability: Normal Fetuses/Implantation Sites (Percent)” value [2, 14] was 24%, the “Number of Rats Pregnant/Number of Rats Treated” value [2, 14] was 4/10 and the “Number of Rats Pregnant/Number of Rats Treated (Percent)” value [2, 14] was 40%. For the same molecule, the “Serum Progesterone (Percent Control)” value [2, 15] was 67 Percent Control, the “Serum Progesterone ng/ml + S.E.” value [2, 15] was 31.5 + 6.7 ng/ml and the “Adrenal Wt. mg + SE” value [2, 16] was 66.4 + 3.3 mg. The “Fetal Viability: Normal Fetuses/Implantation Sites” value [2, 16] was 19/101, the “Fetal Viability: Normal Fetuses/Implantation Sites (Percent)” value [2, 16] was 19% and the “Number of Rats Pregnant/Number of Rats Treated” value [2, 16] was 2/9. For the same molecule, the “Number of Rats Pregnant/Number of Rats Treated (Percent)” value [2, 16] was 22%, the “Serum Progesterone (Percent Control)” value [2, 17] was 40 Percent Control and the “Serum Progesterone ng/ml + S.E.” value [2, 17] was 19.0 + 3.7 ng/ml. The “Adrenal Wt. mg + SE” value [2, 18] was 83.5 + 4.8 mg, the “Fetal Viability: Normal Fetuses/Implantation Sites” value [2, 18] was 24/128 and the “Fetal Viability: Normal Fetuses/Implantation Sites (Percent)” value [2, 18] was 19%. For the same molecule, the “Number of Rats Pregnant/Number of Rats Treated” value [2, 18] was 2/11, the “Number of Rats Pregnant/Number of Rats Treated (Percent)” value [2, 18] was 18% and the “Serum Progesterone (Percent Control)” value [2, 19] was 94 Percent Control. For the same molecule, the “Serum Progesterone ng/ml + S.E.” value [2, 19] was 44.3 + 5.3 ng/ml, the “Adrenal Wt. mg + SE” value [2, 20] was 72.0 + 2.5 mg and the “Fetal Viability: Normal Fetuses/Implantation Sites” value [2, 20] was 85/99. The “Fetal Viability: Normal Fetuses/Implantation Sites (Percent)” value [2, 20] was 85%, the “Number of Rats Pregnant/Number of Rats Treated” value [2, 20] was 8/9 and the “Number of Rats Pregnant/Number of Rats Treated (Percent)” value [2, 20] was 89%.
